Assay results taken from US10947213B1 (Merck Patent GmbH, priority 2015, dated 2021).
pIC50: −log10 of the molar value. Counter-ions that a name gives are not always drawn.

biological target: T1, TLR7/NFKb HEK cells (Homo sapiens, UniProt Q9NYK1); experiment: HEK Cell Assay (TLR7/NFKb reporter, Steady-Glo luciferase readout); type: cell-based; conditions: 30 min compound preincubation, then R*48 agonist for 5 hours, read-out: Potency
T1 construct: expressed in transfected cells; host or cells: HEK cells (TLR7/NFKb reporter line)
T1 sequence (Q9NYK1 27-1049): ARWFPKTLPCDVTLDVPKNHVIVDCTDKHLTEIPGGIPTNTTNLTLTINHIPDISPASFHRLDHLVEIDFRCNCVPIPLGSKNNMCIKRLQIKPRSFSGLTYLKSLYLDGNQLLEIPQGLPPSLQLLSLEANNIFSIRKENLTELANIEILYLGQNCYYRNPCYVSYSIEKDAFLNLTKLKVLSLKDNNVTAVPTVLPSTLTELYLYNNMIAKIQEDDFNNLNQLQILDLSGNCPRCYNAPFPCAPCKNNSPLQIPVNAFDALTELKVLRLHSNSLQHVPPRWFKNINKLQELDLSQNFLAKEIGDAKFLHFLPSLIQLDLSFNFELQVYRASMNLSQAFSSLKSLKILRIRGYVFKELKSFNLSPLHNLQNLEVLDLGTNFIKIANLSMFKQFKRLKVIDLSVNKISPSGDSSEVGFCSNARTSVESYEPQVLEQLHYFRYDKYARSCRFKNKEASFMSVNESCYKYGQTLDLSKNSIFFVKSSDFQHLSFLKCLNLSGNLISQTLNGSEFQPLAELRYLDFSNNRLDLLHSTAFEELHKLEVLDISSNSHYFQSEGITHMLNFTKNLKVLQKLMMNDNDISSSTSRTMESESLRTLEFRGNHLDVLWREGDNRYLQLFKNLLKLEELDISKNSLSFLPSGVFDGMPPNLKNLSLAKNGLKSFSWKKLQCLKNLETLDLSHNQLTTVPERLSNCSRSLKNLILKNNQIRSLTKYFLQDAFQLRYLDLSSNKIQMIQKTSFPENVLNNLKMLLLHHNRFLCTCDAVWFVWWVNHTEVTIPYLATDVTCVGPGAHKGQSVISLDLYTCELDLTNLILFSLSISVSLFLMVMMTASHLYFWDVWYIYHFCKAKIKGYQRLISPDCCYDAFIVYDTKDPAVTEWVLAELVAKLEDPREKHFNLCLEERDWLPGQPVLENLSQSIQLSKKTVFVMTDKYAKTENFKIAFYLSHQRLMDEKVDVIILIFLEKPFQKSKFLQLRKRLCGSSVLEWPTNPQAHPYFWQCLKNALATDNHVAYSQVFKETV
Summary of the method: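 Steady-Glo luminescence after 5 h stimulation with R*48 agonist, following 30 min compound preincubation. Assay run in HEK cells carrying a TLR7/NFKb luciferase reporter, plated at 5000 cells/well and grown 24 h at 37° C (10% CO2) before treatment.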

Row | SMILES | pIC50
1 | C[C@H]1C[C@@H](NC(=O)CO)CN(c2ccc(C#N)c3nccnc23)C1 [Compound 97, N-[(3R,5S)-1-(8-cyanoquinoxalin-5-yl)-5-methylpiperidin-3-yl]-2-hydroxyacetamide] | > 6.00
2 | C[C@H]1C[C@@H](NC(=O)CC(F)(F)F)CN(c2ccc(C#N)c3nccnc23)C1 [Compound 111, N-[(3R,5S)-1-(8-cyanoquinoxalin-5-yl)-5-methylpiperidin-3-yl]-3,3,3-trifluoropropanamide] | > 6.00
3 | C[C@H]1C[C@@H](NC(=O)CC2CCN(C)C2)CN(c2ccc(C(F)F)c3ncccc23)C1 (stereo partly drawn) [Compound 307, N-[(3R,5S)-1-[8-(difluoromethyl)quinolin-5-yl]-5-methylpiperidin-3-yl]-2-(1-methylpyrrolidin-3-yl)acetamide] | > 6.00
4 | C[C@@H]1CN(c2ccc(C#N)c3nccnc23)C[C@H](CN2CCC(N3CCCC3)CC2)O1 [Compound 57, 8-((2R,6S)-2-methyl-6-((4-(pyrrolidin-1-yl)piperidin-1-yl)methyl)morpholino)quinoxaline-5-carbonitrile] | > 6.00
5 | O=C(CN1CCOCC1)NC1CN(c2ccc(C(F)(F)F)c3ncccc23)CC(F)(F)C1 (centres unmarked) [Compound 512, N-[5,5-Difluoro-1-(8-trifluoromethyl-quinolin-5-yl)-piperidin-3-yl]-2-morpholin-4-yl-acetamide] | 5.00 to 6.00
6 | C[C@H]1C[C@@H](NC(=O)CC2CCN(CC(F)F)CC2)CN(c2ccc(C(F)(F)F)c3ncccc23)C1 [Compound 246, 2-[1-(2,2-difluoroethyl)piperidin-4-yl]-N-[(3R,5S)-5-methyl-1-[8-(trifluoromethyl)quinolin-5-yl]piperidin-3-yl]acetamide] | > 6.00
7 | C[C@H]1C[C@@H](NC(=O)C(N)C2CC2)CN(c2ccc(C(F)(F)F)c3ncccc23)C1 (stereo partly drawn) [Compound 282, 2-amino-2-cyclopropyl-N-[(3R,5S)-5-methyl-1-[8-(trifluoromethyl)quinolin-5-yl]piperidin-3-yl]acetamide] | > 6.00
8 | N#Cc1ccc(N2C[C@H](N)C[C@H](F)C2)c2nccnc12 [Compound 499, 8-((3R,5S)-3-Amino-5-fluoro-piperidin-1-yl)-quinoxaline-5-carbonitrile hydrochloride] | 5.00 to 6.00
9 | CC(C(=O)N[C@@H]1C[C@H](C)CN(c2ccc(C(F)(F)F)c3ncccc23)C1)N1CC(O)C1 (stereo partly drawn) [Compound 285, 2-(3-hydroxyazetidin-1-yl)-N-[(3R,5S)-5-methyl-1-[8-(trifluoromethyl)quinolin-5-yl]piperidin-3-yl]propanamide] | > 6.00
10 | N#Cc1ccc(N2CCC(CNC(=O)CN3CCCCC3)CC2)c2cccnc12 [Compound 409, N-[1-(8-Cyano-quinolin-5-yl)-piperidin-4-ylmethyl]-2-piperidin-1-yl-acetamide] | > 6.00
11 | C[C@H]1C[C@@H](NC(=O)[C@H](N)CO)CN(c2ccc(C#N)c3nccnc23)C1 [Compound 106, (2R)-2-amino-N-[(3R,5S)-1-(8-cyanoquinoxalin-5-yl)-5-methylpiperidin-3-yl]-3-hydroxypropanamide] | > 6.00
12 | CCN(CC)CC(=O)NCC1CCN(c2ccc(C#N)c3ncncc23)CC1 [Compound 395, N-[1-(8-Cyano-quinazolin-5-yl)-piperidin-4-ylmethyl]-2-diethylamino-acetamide] | 5.00 to 6.00
13 | C[C@H]1C[C@@H](NC(=O)CN2CCOCC2)CN(c2ccc(C(F)(F)F)c3ncccc23)C1 [Compound 239, N-[(3R,5S)-5-methyl-1-[8-(trifluoromethyl)quinolin-5-yl]piperidin-3-yl]-2-(morpholin-4-yl)acetamide] | > 6.00
14 | CN1CCCC1CNC(=O)C1CCN(c2ccc(C(F)(F)F)c3ncccc23)CC1 (centres unmarked) [Compound 442, 1-(8-Trifluoromethyl-quinolin-5-yl)-piperidine-4-carboxylic acid (1-methyl-pyrrolidin-2-ylmethyl)-amide] | > 6.00
15 | N#Cc1ccc(N2CC(NC(=O)CCC(=O)N3CCC3)CC(C(F)(F)F)C2)c2cccnc12 (single isomer, unassigned) [Compound 495] | 5.00 to 6.00
16 | Cc1cc2c(N3C[C@@H](C)C[C@@H](N)C3)ccnc2n1C [Compound 9, (3R,5S)-1-(1,2-dimethyl-1H-pyrrolo[2,3-b]pyridin-4-yl)-5-methylpiperidin-3-amine] | < 5.00

Row | SMILES | pIC50
17 | CCN(C)CC(=O)NCC1CCN(c2ccnc3nccnc23)CC1 [Compound 408, 2-(Ethyl-methyl-amino)-N-(1-pyrido[2,3-b]pyrazin-8-yl-piperidin-4-ylmethyl)-acetamide] | 5.00 to 6.00
18 | CN(C)CC(=O)NC1CN(c2ccc(C#N)c3ncccc23)CC(F)(F)C1 (single isomer, unassigned) [Compound 449] | > 6.00
19 | O=C(CN1CCCCC1)NCC1CCN(c2ccc(C(F)(F)F)c3ncccc23)CC1 [Compound 448, 2-Piperidin-1-yl-N-[1-(8-trifluoromethyl-quinolin-5-yl)-piperidin-4-ylmethyl]-acetamide] | 5.00 to 6.00
20 | CC(C)[C@@H](O)C(=O)N[C@@H]1C[C@H](C)CN(c2ccc(C#N)c3nccnc23)C1 [Compound 21, (R)—N-((3R,5S)-1-(8-cyanoquinoxalin-5-yl)-5-methylpiperidin-3-yl)-2-hydroxy-3-methylbutanamide] | > 6.00
21 | N#Cc1ccc(N2CC(NC(=O)C(N)C3CC3)CC(C(F)(F)F)C2)c2cccnc12 (mixture of isomers) [Compound 486, rac-(R)-2-Amino-N-[(3R,5S)-1-(8-cyano-quinolin-5-yl)-5-trifluoromethyl-piperidin-3-yl]-2-cyclopropyl-acetamide] | > 6.00
22 | CCN(CC)CCNCC1CCN(c2ccnc3cc(C)ccc23)CC1 [Compound 389, N,N-Diethyl-N′-[1-(7-methyl-quinolin-4-yl)-piperidin-4-ylmethyl]-ethane-1,2-diamine] | 5.00 to 6.00
23 | C[C@H]1C[C@@H](NC2CCN(C)C2=O)CN(c2ccc(C(F)(F)F)c3nccnc23)C1 (single isomer, unassigned) [Compound 353] | > 6.00
24 | CN1CCN(C(=O)CCC(=O)N[C@H]2C[C@@H](C(F)(F)F)CN(c3ccc(C#N)c4ncccc34)C2)CC1 (racemic) [Compound 496, cis-N—[-1-(8-Cyano-quinolin-5-yl)-5-trifluoromethyl-piperidin-3-yl]-4-(4-methyl-piperazin-1-yl)-4-oxo-butyramide] | > 6.00
25 | C[C@H]1C[C@@H](NC(=O)C(N)C2CC2)CN(c2ccc(C(F)(F)F)c3nccnc23)C1 (stereo partly drawn) [Compound 294, 2-amino-2-cyclopropyl-N-[(3R,5S)-5-methyl-1-[8-(trifluoromethyl)quinoxalin-5-yl]piperidin-3-yl]acetamide] | > 6.00
26 | CC(C)[C@H](O)C(=O)N[C@@H]1C[C@H](C)CN(c2ccc(C(F)(F)F)c3ncccc23)C1 [Compound 194, (2S)-2-hydroxy-3-methyl-N-[(3R,5S)-5-methyl-1-[8-(trifluoromethyl)quinolin-5-yl]piperidin-3-yl]butanamide] | > 6.00
27 | COCCN[C@H]1C[C@@H](C(F)(F)F)CN(c2ccc(C#N)c3nccnc23)C1 (relative stereo) [Compound 221, cis-8-[3-[(2-methoxyethyl)amino]-5-(trifluoromethyl)piperidin-1-yl]quinoxaline-5-carbonitrile] | 5.00 to 6.00
28 | C[C@H]1C[C@@H](NC2CCN(C)C2=O)CN(c2ccc(C(F)(F)F)c3nccnc23)C1 (single isomer, unassigned) [Compound 352] | > 6.00
29 | N#Cc1ccc(N2CC(NC(=O)CC3(N)CCCCC3)CC(C(F)(F)F)C2)c2cccnc12 (single isomer, unassigned) [Compound 498] | > 6.00
30 | C[C@H]1C[C@@H](NC(=O)CC2CNC2)CN(c2ccc(C#N)c3nccnc23)C1 [Compound 274, 2-(azetidin-3-yl)-N-[(3R,5S)-1-(8-cyanoquinoxalin-5-yl)-5-methylpiperidin-3-yl]acetamide] | > 6.00
31 | N#Cc1ccc(N2CCC(C(=O)NC3CCN(CC4CC4)C3)CC2)c2cccnc12 (centres unmarked) [Compound 434, 1-(8-Cyano-quinolin-5-yl)-piperidine-4-carboxylic Acid (1-cyclopropylmethyl-pyrrolidin-3-yl)-amide] | > 6.00
32 | C[C@H]1C[C@@H](NC(=O)CNS(C)(=O)=O)CN(c2ccc(C(F)(F)F)c3ncccc23)C1 [Compound 474, 2-Methanesulfonylamino-N-[(3R,5S)-5-methyl-1-(8-trifluoromethyl-quinolin-5-yl)-piperidin-3-yl]-acetamide] | 5.00 to 6.00
